Patent US20120121574A1, “ANTIMICROBIAL, ANTIVIRAL, ANTICANCER AND IMMUNOMODULATORY PEPTIDES AND USES THEREFORE” (priority 2010, published 2012)
Where a SMILES comes first, the peptide text is derived from it. Where no end group is shown, it is not given here.

Assays:
[1] = system: U937 cell line; experiment: annexine-V/propidium iodide flow cytometry on U937; details: annexine-V/propidium iodide staining
[2] = system: C. albicans AIDS68 strain; experiment: murine model of vaginal candidiasis, fluconazole-resistant strain; format: in vivo, mice; details: peptide 25 micrograms intravaginally 1, 24 and 48 hours after challenge
Procedure: (§1) In vivo activity of N10K against vaginal candidiasis caused in mice by the fluconazole-resistant C. albicans AIDS68 strain. The anticandidal therapeutic activity of N10K was evaluated in a murine model of vaginal candidiasis. Groups of 5 mice were injected subcutaneously with 0.02 mg of estradiol benzoate in 100 μl of saline solution, […] and weekly thereafter. Then, mice given intravaginally 10^6 cells of the fluconazole-resistant C. albicans strain AIDS68 in 20 μl of saline solution on day 0 and were sampled for intravaginal CFU. N10K, 25 micrograms, was intravaginally administered in comparison to an irrelevant peptide (SP) as control, 1, 24 and 48 hours after the infectious challenge and sampled for intravaginal CFU at days 1, 2, 5, 7, 14, 21, and 28. The statistical significance was assessed by two-tailed Student's t test. On days 1, 2, 5, 7, 14, and 21, the differences in the CFU vaginal counts between N10K treated, untreated, SP treated and fluconazole treated animals were statistically significant (P<0.05) (Table VI).
as §1, with “T11F” for “N10K”, “T11F,” for “N10K,”, “VIII).” for “VI).”

[3] = system: C. albicans SC5314 strain; details: for EC50: SC5314, 6 h; for EC50asd/EC50N10K: Table IX
Procedure: In vitro activity of N10K against C. albicans SC5314 strain. The candidacidal activity of N10K peptide against C. albicans was assessed by a conventional colony forming unit (CFU) assay as previously described (Polonelli et al., 2003; Manfredi et al., 2005). Briefly, cells of C. albicans SC5314 were incubated at 37° C. for 6 hours (hr) in the presence of N10K at the concentration indicated of 20, 12.5 or 6.25 microgram/ml, or in distilled water as control (C). After incubation, cell suspensions were plated on Sabouraud dextrose agar and incubated at 30° C. for 48 hours when CFU were counted (** P<0.01 for N10K treated versus untreated cells, by t test). […]
The alanine-substituted derivatives (asd), defined according to the position held by the alanine-substituted aminoacid, were tested against C. albicans by a conventional colony forming unit (CFU) as previously described (Polonelli et al., 2003). Briefly, cells of C. albicans SC5314 were incubated at 37° C. for 6 hours in the presence of N10K or N10K asd at different scalar concentrations or distilled water as control. After incubation, cell suspensions were plated on Sabouraud dextrose agar and incubated at 30° C. for 48 hours when CFU were counted. Based on several independent replications, the EC50 value of each peptide was calculated by nonlinear regression analysis using Graph Pad Prism 4.01 software, San Diego, Calif., USA. […]
In vitro microbicidal activity of N10K derivative with 2 amino acid substitutions, or 80% sequence identity with native N10K, namely peptide Seq Id. No. 25 was tested against Candida albicans SC5314 as determined by Colony Forming Unit assay.

[4] = system: peritoneal murine macrophages (PM); experiment: in vitro immunomodulatory activity on murine peritoneal macrophages (PM); format: cell-based, mouse; details: mouse peritoneal macrophages, FIG. 73
Procedure: In vitro immunomodulatory activity of MoA VHCDR3 on murine immune cells. FIGS. 47-51 are graphs showing TNF-α and IL-6 production by PM and PMN stimulated with MoA CDRs and mouse MoA VHCDR3 uptake by different cell populations. Cells were cultured in the presence or absence (NS) of human and/or mouse CDRs, lipopolisaccharide (LPS), or negative control peptide (NC) (all 10 micrograms/ml) for 18 hr. Both PM and PMN cell populations were 5×10^6/ml. After incubation, TNF-α and IL-6 levels were evaluated in culture supernatants by specific ELISA assays (* P<0.05 treated vs untreated cells, n=7). In FIG. 51, dendritic cells (DC), PM, PMN, and T cells (all 1×10^6/ml) were incubated for 1 hr in the presence or absence (NS) of biotinylated (b)-MoA VHCDR3 or b-NC (both 10 micrograms/ml). After incubation, permeabilized cells were reacted with FITC-labelled mAb to biotin (b) and analyzed by FACScan flow cytometry. Data are reported as the percentage of positive cells *, P<0.05 (b-VHCDR3 treated vs untreated cells, n=5). Error bars, s.e.m. FIGS. 52A and B show graphs and colored cell staining micrograph of kinetic of VHCDR3 uptake by PM. PM (1×10^6/ml) were incubated for different times with b-VHCDR3 or b-NC (all 10 micrograms/ml). After incubation, permeabilized cells were reacted with FITC-labelled mAb to biotin and analyzed by FACScan flow cytometry. Data are reported as the mean fluorescence intensity (MFI) and percentage of positive cells (FIG. 52A) (* P<0.05 b-VHCDR3-treated vs untreated cells, n=7). Error bars, s.e.m. In selected experiments, cells were incubated for 1 hr as above described, reacted with FITC-labelled mAb to biotin in the presence of Evans' Blue as a counter stain, and subsequently examined under fluorescent light microscopy (FIG. 52B). Note the green fluorescence of b-VHCDR3 treated cells. Original magnification 20×. In FIGS. 53 and 54 is shown the phospho-Akt activation and TNF-α production in PM stimulated with MoA VHCDR3. PM (3×10^6/ml) were stimulated for 1 hr in the presence or absence (NS) of MoA VHCDR3, LPS, an irrelevant control peptide (NC) or a scrambled peptide (SP) (all 10 micrograms/ml). After incubation, cell lysates were subjected to Western blotting. Membranes were incubated with Abs to pAkt and Akt; pAkt was normalized against Akt (FIG. 53)*, P<0.05 (treated vs untreated cells, n=5). […] PM (5×10^6/ml) were stimulated for 18 hr as above described. After incubation, TNF-α level was evaluated in culture supernatants by specific ELISA assays. (FIG. 54)*, P<0.05 (treated vs untreated cells, n=5). In FIGS. 55 and 56 is shown the phospho-IkBα activation and TNF-α gene expression in PM stimulated with MoA VHCDR3. PM (3×10^6/ml) were stimulated for 1 hr in the presence or absence (NS) of wortmannin (4 nM), MoA VHCDR3, LPS or NC (all 10 micrograms/ml). After incubation, cell lysates were subjected to Western blotting. Membranes were incubated with Abs to pIkBα and IkBα; pIkBα was normalized against IkBα. (FIG. 55)*, P<0.05 (treated versus untreated cells, n=5); †, P<0.05 (wortmannin-treated vs wortmannin-untreated cells, n=5). For testing the expression level of TNF-α gene, PM (1×10^6/ml) were cultured for 1, 6 and 18 hr as above described. After incubation, total RNA was isolated and analyzed for mRNA expression with RT-PCR (FIG. 56). Transcript copy numbers were determined by qPCR using cDNA as a template. Copy numbers were normalized against the copy number of the GADPH gene (B). […]

[5] = system: C. neoformans 6995 strain; details: 6995 strain, 6 h
Procedure: After the incubation period, the cell suspensions have been plated on Sabouraud dextrose agar, then incubated at 30° C. and observed for CFU enumeration after 48 hours.

Row | Compound | EC50 [3] [nM] | EC50asd/EC50N10K [3] | further results
1 | CC(C)C[C@H](NC(=O)[C@H](C)NC(=O)[C@H](CCC(=O)O)NC(=O)[C@@H](N)Cc1c[nH]cn1)C(=O)O [Peptide H4L, H E A L] (H-HEAL-OH) | – | – | induction of apoptotic/necrotic effects [1]: exclude the induction of apoptotic/necrotic effects
2 | OC(Cn1cncn1)(Cn1cncn1)c1ccc(F)cc1F [fluconazole] | – | – | CFU vaginal counts ([2]; Day 0): >100; CFU vaginal counts ([2]; Day 1): >100; CFU vaginal counts ([2]; Day 2): 93 ± 4.3; CFU vaginal counts ([2]; Day 5): 61 ± 2.5; CFU vaginal counts ([2]; Day 7): 44 ± 2.9; CFU vaginal counts ([2]; Day 14): 18.7 ± 3.8; CFU vaginal counts ([2]; Day 21): 11.7 ± 0.7; CFU vaginal counts ([2]; Day 28): 0
3 | AQVSLTCLVK [asd N1A N10K, A Q V S L T C L V K] | 587 | 0.58 | –
4 | G Q A G N L W F A Y (GQAGNLWFAY) [Peptide A3] | – | – | TNF-α-inducing activity compared with VHCDR3 [4]: either unchanged or slightly reduced
5 | G Q Y G A L W F A Y (GQYGALWFAY) [Peptide A5] | – | – | TNF-α-inducing activity compared with VHCDR3 [4]: either unchanged or slightly reduced
6 | N Q V S L T C L V A (NQVSLTCLVA) [asd K10A] | – | – | percentual inhibition of C. albicans growth ([3]; at the concentration of 250 micrograms/ml): * EC50 was not determined, asd K10A showed a percentual inhibition of C. albicans growth equal to 69.04 at the concentration of 250 micrograms/ml
7 | NQASLTCLVK [asd V3A N10K, N Q A S L T C L V K] | 5930 | 5.91 | –
8 | NQVALTCLVK [asd S4A N10K, N Q V A L T C L V K] | 2390 | 2.38 | –
9 | NQVSATCLVK [asd L5A N10K, N Q V S A T C L V K] | 885 | 0.88 | –
10 | NQVSATCSVK [L5A, L8S N10K, N Q V S A T C S V K] | 43200 | – | Activity ([3]; Table III, in vitro, Fungus): cidal
11 | NQVSLACLVK [asd T6A N10K, N Q V S L A C L V K] | 4880 | 4.86 | –
12 | NQVSLTALVK [asd C7A N10K, N Q V S L T A L V K] | 54900 | 54.71 | –
13 | NQVSLTCAVK [asd L8A N10K, N Q V S L T C A V K] | 744 | 0.74 | –
14 | NQVSLTCLAK [asd V9A N10K, N Q V S L T C L A K] | 1780 | 1.77 | –
15 | TCRVDHRGLTF [Peptide T11F, T C R V D H R G L T F] | 1600 | – | induction of apoptotic/necrotic effects [1]: exclude the induction of apoptotic/necrotic effects; EC50 [5]: 2690 nM
